According to patent US9346815B2, “5-chloro-2-difluoromethoxyphenyl pyrazolopyrimidine compounds, compositions and methods of use thereof” (Genentech, Inc., priority 2014, dated 2016):

Columns and labels:
[1] = target: isolated recombinant JAK1 kinase domain (Homo sapiens (Human), UniProt P23458); assay: JAK1 enzyme assay (Caliper LabChip, peptide phosphorylation); assay type: biochemical; settings: isolated recombinant JAK1 kinase domain, 25 μM ATP
[2] = target: isolated recombinant JAK2 kinase domain (Homo sapiens (Human), UniProt O60674); assay: JAK2 enzyme assay (Caliper LabChip, peptide phosphorylation); assay type: biochemical; settings: 25 μM ATP
isolated recombinant JAK2 kinase domain, sequence (O60674 849-1124): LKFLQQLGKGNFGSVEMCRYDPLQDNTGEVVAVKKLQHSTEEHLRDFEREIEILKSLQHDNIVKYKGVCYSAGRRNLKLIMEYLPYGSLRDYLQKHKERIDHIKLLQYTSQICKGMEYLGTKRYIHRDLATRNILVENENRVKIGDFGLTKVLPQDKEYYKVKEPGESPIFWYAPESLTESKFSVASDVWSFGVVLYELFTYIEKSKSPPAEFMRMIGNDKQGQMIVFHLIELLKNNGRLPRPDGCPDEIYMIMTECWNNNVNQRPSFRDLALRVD

isolated recombinant JAK1 kinase domain, sequence (P23458 875-1153): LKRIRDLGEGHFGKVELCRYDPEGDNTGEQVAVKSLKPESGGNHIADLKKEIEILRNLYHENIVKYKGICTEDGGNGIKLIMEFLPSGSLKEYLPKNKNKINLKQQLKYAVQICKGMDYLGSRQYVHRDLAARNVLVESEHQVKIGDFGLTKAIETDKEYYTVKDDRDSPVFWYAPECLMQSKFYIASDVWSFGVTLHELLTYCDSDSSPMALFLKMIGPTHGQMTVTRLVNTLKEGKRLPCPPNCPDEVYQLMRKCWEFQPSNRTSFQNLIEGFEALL

| SMILES | Ki [1] | Ki [2] |
| --- | --- | --- |
| CN(C)CCOC1CCN(C(=O)Cn2cc(NC(=O)c3cnn4cccnc34)c(-c3cc(Cl)ccc3OC(F)F)n2)CC1 [Example 73, N-[3-[5-chloro-2-(difluoromethoxy)phenyl]-1-[2-[4-[2-(dimethylamino)ethoxy]-1-piperidyl]-2-oxo-ethyl]pyrazol-4-yl]pyrazolo[1,5-a]pyrimidine-3-carboxamide] | 0.71 nM | 1.71 nM |
| CN(C1CCN(C(=O)Cn2cc(NC(=O)c3cnn4cccnc34)c(-c3cc(Cl)ccc3OC(F)F)n2)CC1)C(Cc1ccccc1)C(F)(F)F (stereo not drawn) [Example 133, N-[1-[2-[4-[(1-benzyl-2,2,2-trifluoro-ethyl)-methyl-amino]-1-piperidyl]-2-oxo-ethyl]-3-[5-chloro-2-(difluoromethoxy)phenyl]pyrazol-4-yl]pyrazolo[1,5-a]pyrimidine-3-carboxamide] | 6.51 nM | 8.33 nM |
| CN(CC1(C#N)CCCCC1)C1CCN(C(=O)c2ccc(-n3cc(NC(=O)c4cnn5cccnc45)c(-c4cc(Cl)ccc4OC(F)F)n3)cc2)CC1 [Example 187, N-[3-[5-chloro-2-(difluoromethoxy)phenyl]-1-[4-[4-[(1-cyanocyclohexyl)methyl-methyl-amino]piperidine-1-carbonyl]phenyl]pyrazol-4-yl]pyrazolo[1,5-a]pyrimidine-3-carboxamide] | 7.05 nM | 9.03 nM |
| CN(CC1(C#N)CCCCC1)C1CCN(c2nc(-c3cc(Cl)ccc3OC(F)F)c(NC(=O)c3cnn4cccnc34)s2)CC1 [Example 203, N-[4-[5-chloro-2-(difluoromethoxy)phenyl] 2-[4-[(1-cyanocyclohexyl)methyl-methyl-amino]-1-piperidyl]thiazol-5-yl]pyrazolo[1,5-a]pyrimidine-3-carboxamide] | 5.48 nM | 4.15 nM |
| O=C(Nc1sc(N2CCN(CCc3ccccc3)CC2)nc1-c1cc(Cl)ccc1OC(F)F)c1cnn2cccnc12 [Example 206, N-[4-[5-chloro-2-(difluoromethoxy)phenyl]-2-[4-(2-phenylethyl)piperazin-1-yl]thiazol-5-yl]pyrazolo[1,5-a]pyrimidine-3-carboxamide] | 14 nM | 8.67 nM |
| CN1CCC2(CC1)CN(C(=O)Cn1cc(NC(=O)c3cnn4cccnc34)c(-c3cc(Cl)ccc3OC(F)F)n1)CCO2 [Example 213, N-[3-[5-chloro-2-(difluoromethoxy)phenyl]-1-[2-(9-methyl-1-oxa-4,9-diazaspiro[5.5]undecan-4-yl)-2-oxo-ethyl]pyrazol-4-yl]pyrazolo[1,5-a]pyrimidine-3-carboxamide] | 1.49 nM | 2.34 nM |
| CN1CC2(C1)CN(C(=O)Cn1cc(NC(=O)c3cnn4cccnc34)c(-c3cc(Cl)ccc3OC(F)F)n1)C2 [Example 214, N-[3-[5-chloro-2-(difluoromethoxy)phenyl]-1-[2-(6-methyl-2,6-diazaspiro[3.3]heptan-2-yl)-2-oxo-ethyl]pyrazol-4-yl]pyrazolo[1,5-a]pyrimidine-3-carboxamide] | 1.17 nM | 1.29 nM |
| O=C(Nc1cn(CC(=O)N2CC3(CCNCC3)C2)nc1-c1cc(Cl)ccc1OC(F)F)c1cnn2cccnc12 [Example 217, N-[3-[5-chloro-2-(difluoromethoxy)phenyl]-1-[2-(2,7-diazaspiro[3.5]nonan-2-yl)-2-oxo-ethyl]pyrazol-4-yl]pyrazolo[1,5-a]pyrimidine-3-carboxamide] | 1.07 nM | 1.37 nM |
| O=C(Nc1cn(CC(=O)N2CCN(CCCO)CC2)nc1-c1cc(Cl)ccc1OC(F)F)c1cnn2cccnc12 [Example 230, N-[3-[5-chloro-2-(difluoromethoxy)phenyl]-1-[2-[4-(3-hydroxypropyl)piperazin-1-yl]-2-oxo-ethyl]pyrazol-4-yl]pyrazolo[1,5-a]pyrimidine-3-carboxamide] | 0.61 nM | 0.71 nM |
| CS(=O)(=O)CCN1CCN(C(=O)Cn2cc(NC(=O)c3cnn4cccnc34)c(-c3cc(Cl)ccc3OC(F)F)n2)CC1 [Example 232, N-[3-[5-chloro-2-(difluoromethoxy)phenyl]-1-[2-[4-(2-methylsulfonylethyl)piperazin-1-yl]-2-oxo-ethyl]pyrazol-4-yl]pyrazolo[1,5-a]pyrimidine-3-carboxamide] | 0.74 nM | 1.46 nM |
| O=C(Nc1cn(CC(=O)N2CCCN(CCO)CC2)nc1-c1cc(Cl)ccc1OC(F)F)c1cnn2cccnc12 [Example 240, N-[3-[5-chloro-2-(difluoromethoxy)phenyl]-1-[2-[4-(2-hydroxyethyl)-1,4-diazepan-1-yl]-2-oxo-ethyl]pyrazol-4-yl]pyrazolo[1,5-a]pyrimidine-3-carboxamide] | 1 nM | 1.68 nM |

The next compounds have a lower Ki [1] than those just listed; values first:

| Ki [1] | Ki [2] | SMILES |
| --- | --- | --- |
| 0.5 nM | 0.52 nM | Nc1nn2cccnc2c1C(=O)Nc1cn(CC(=O)N2CCC(N3CC[C@@H](O)C3)CC2)nc1-c1cc(Cl)ccc1OC(F)F [Example 76, 2-amino-N-[3-[5-chloro-2-(difluoromethoxy)phenyl]-1-[2-[4-[(3R)-3-hydroxypyrrolidin-1-yl]-1-piperidyl]-2-oxo-ethyl]pyrazol-4-yl]pyrazolo[1,5-a]pyrimidine-3-carboxamide] |
| 0.53 nM | 0.72 nM | CN(C)CCOC1CCN(C(=O)Cn2cc(NC(=O)c3c(N)nn4cccnc34)c(-c3cc(Cl)ccc3OC(F)F)n2)CC1 [Example 137, 2-amino-N-[3-[5-chloro-2-(difluoromethoxy)phenyl]-1-[2-[4-[2-(dimethylamino)ethoxy]-1-piperidyl]-2-oxo-ethyl]pyrazol-4-yl]pyrazolo[1,5-a]pyrimidine-3-carboxamide] |
| 0.59 nM | 0.31 nM | Nc1nn2cccnc2c1C(=O)Nc1cn([C@@H]2CCNC2)nc1-c1cc(Cl)ccc1OC(F)F [Example 185, 2-amino-N-[3-[5-chloro-2-(difluoromethoxy)phenyl]-1-[(3R)-pyrrolidin-3-yl]pyrazol-4-yl]pyrazolo[1,5-a]pyrimidine-3-carboxamide] |
| 0.54 nM | 1.18 nM | O=C(Nc1cn(CC(=O)N2CCN(CCOCCO)CC2)nc1-c1cc(Cl)ccc1OC(F)F)c1cnn2cccnc12 [Example 231, N-[3-[5-chloro-2-(difluoromethoxy)phenyl]-1-[2-[4-[2-(2-hydroxyethoxy)ethyl]piperazin-1-yl]-2-oxo-ethyl]pyrazol-4-yl]pyrazolo[1,5-a]pyrimidine-3-carboxamide] |
| 0.58 nM | 1.22 nM | CN1CCN(C(=O)Cn2cc(NC(=O)c3cnn4cccnc34)c(-c3cc(Cl)ccc3OC(F)F)n2)C[C@@H]1CO [Example 234, N-[3-[5-chloro-2-(difluoromethoxy)phenyl]-1-[2-[(3R)-3-(hydroxymethyl)-4-methyl-piperazin-1-yl]-2-oxo-ethyl]pyrazol-4-yl]pyrazolo[1,5-a]pyrimidine-3-carboxamide] |
| 0.41 nM | 0.74 nM | O=C(Nc1cn(CC(=O)N2CCN(c3ccccc3)CC2)nc1-c1cc(Cl)ccc1OC(F)F)c1cnn2cccnc12 [Example 236, N-[3-[5-chloro-2-(difluoromethoxy)phenyl]-1-[2-oxo-2-(4-phenylpiperazin-1-yl)ethyl]pyrazol-4-yl]pyrazolo[1,5-a]pyrimidine-3-carboxamide] |
| 0.32 nM | 0.76 nM | N#Cc1ccc(N2CCN(C(=O)Cn3cc(NC(=O)c4cnn5cccnc45)c(-c4cc(Cl)ccc4OC(F)F)n3)CC2)cc1 [Example 237, N-[3-[5-chloro-2-(difluoromethoxy)phenyl]-1-[2-[4-(4-cyanophenyl)piperazin-1-yl]-2-oxo-ethyl]pyrazol-4-yl]pyrazolo[1,5-a]pyrimidine-3-carboxamide] |
